Results: patent publication US10130631B2, “CML therapeutic agents with reduced drug-resistance and side-effect comprising 1,6-disubstituted indole compounds” (KOREA INSTITUTE OF SCIENCE AND TECHNOLOGY, priority 2016, dated 2018)

Key:
Format in all cases: cell-based
[1] = system: VEGFR2 Ba/F3; test: Proliferation inhibitory activity, VEGFR2 Ba/F3; conditions: for GI50: Mus musculus, BaF3, VEGFR2 Ba/F3 cell line; for inhibitory activity against VEGFR2 kinase (in words): summary of Table 1
Procedure: (§1) The GI50 value was calculated by measuring the inhibitory effect on the proliferation of the compounds of the present invention in parental Ba/F3, wt-Bcr-Abl Ba/F3, T315I-Bcr-Abl Ba/F3 and VEGFR2 Ba/F3 cell lines.

[2] = system: T315I-Bcr-Abl Ba/F3; test: Proliferation inhibitory activity, T315I-Bcr-Abl Ba/F3; conditions: for GI50: Mus musculus, BaF3, T315I-Bcr-Abl Ba/F3 cell line; for inhibitory activity against T315I-Bcr-Abl (in words): summary of Table 1
Procedure: as §1

[3] = system: wt-Bcr-Abl Ba/F3; test: Proliferation inhibitory activity, wt-Bcr-Abl Ba/F3; conditions: for GI50: Mus musculus, BaF3, wt-Bcr-Abl Ba/F3 cell line; for inhibitory activity against wt-Bcr-Abl (in words): summary of Table 1
Procedure: as §1

[4] = system: Parental Ba/F3; test: Proliferation inhibitory activity, parental Ba/F3; conditions: Mus musculus, BaF3; parental Ba/F3 cell line
Procedure: as §1

## COc1ccccc1NC(=O)Nc1ccc(C)c(-c2ccc3ccn(-c4cc(N)ncn4)c3c2)c1 [Compound No. 9, 1-(3-(1-(6-aminopyrimidine-4-yl)-1H-indole-6-yl)-4-methylphenyl)-3-(2-methoxyphenyl) urea]
[1]
  GI50: > 3 µM
[2]
  GI50: > 3 µM
[3]
  GI50: > 3 µM
[4]
  GI50: > 3 µM

## Cc1ccc(NC(=O)c2ccc(N3CCN(C)CC3)c(C(F)(F)F)c2)cc1-c1ccc2ccn(-c3cc(N)ncn3)c2c1 [Compound No. 5]
[1]
  GI50: > 3 µM
  inhibitory activity against VEGFR2 kinase (in words): does not exhibit any inhibitory activity
[2]
  GI50: < 0.3 µM
  inhibitory activity against T315I-Bcr-Abl (in words): strong inhibitory activity
[3]
  GI50: 0.3 to 3 µM
  inhibitory activity against wt-Bcr-Abl (in words): have a wt-Bcr-Abl inhibitory activity
[4]
  GI50: 0.3 to 3 µM

## Cc1ccc(NC(=O)c2cc(N3CCC(O)CC3)cc(C(F)(F)F)c2)cc1-c1ccc2ccn(-c3cc(N)ncn3)c2c1 [Compound No. 2]
[1]
  GI50: > 3 µM
[2]
  GI50: < 0.3 µM
[3]
  GI50: > 3 µM
[4]
  GI50: > 3 µM

## Cc1cn(-c2cc(C(=O)Nc3ccc(C)c(-c4ccc5ccn(-c6ncnc7[nH]ccc67)c5c4)c3)cc(C(F)(F)F)c2)cn1 [Compound No. 11]
[1]
  GI50: > 3 µM
  inhibitory activity against VEGFR2 kinase (in words): does not exhibit any inhibitory activity
[2]
  GI50: < 0.3 µM
  inhibitory activity against T315I-Bcr-Abl (in words): strong inhibitory activity
[3]
  GI50: < 0.3 µM
  inhibitory activity against wt-Bcr-Abl (in words): have a wt-Bcr-Abl inhibitory activity
[4]
  GI50: 0.3 to 3 µM

## Cc1ccc(NC(=O)c2ccc(N3CCN(C)CC3)c(C(F)(F)F)c2)cc1-c1ccc2ccn(-c3ncnc4[nH]ccc34)c2c1 [Compound No. 15, N-(3-(1-(7H-pyrrolo[2,3-d]pyrimidine-4-yl)-1H-indole-6-yl)-4-methylphenyl)-4-(4-methylpiperazine-1-yl)-5-(trifluoromethyl)benzamide]
[1]
  GI50: 0.3 to 3 µM
[2]
  GI50: < 0.3 µM
[3]
  GI50: 0.3 to 3 µM
[4]
  GI50: 0.3 to 3 µM

## Cc1cn(-c2cc(C(=O)Nc3ccc(C)c(-c4ccc5ccn(-c6cc(N)ncn6)c5c4)c3)cc(C(F)(F)F)c2)cn1 [Compound No. 1]
[1]
  GI50: > 3 µM
  inhibitory activity against VEGFR2 kinase (in words): does not exhibit any inhibitory activity
[2]
  GI50: < 0.3 µM
  inhibitory activity against T315I-Bcr-Abl (in words): strong inhibitory activity
[3]
  GI50: 0.3 to 3 µM
  inhibitory activity against wt-Bcr-Abl (in words): have a wt-Bcr-Abl inhibitory activity
[4]
  GI50: 0.3 to 3 µM

## COc1ccccc1NC(=O)Nc1cccc(-c2ccc3ccn(-c4ncnc5[nH]ccc45)c3c2)c1 [Compound No. 10, 1-(3-(1-(7H-pyrrolo[2,3-d]pyrimidine-4-yl)-1H-indole-6-yl)phenyl)-3-(2-methoxyphenyl)urea]
[1]
  GI50: > 3 µM
[2]
  GI50: > 3 µM
[3]
  GI50: > 3 µM
[4]
  GI50: > 3 µM

## Cc1ccc(NC(=O)c2ccc(CN3CCN(C)CC3)c(C(F)(F)F)c2)cc1-c1ccc2ccn(-c3ncnc4[nH]ccc34)c2c1 [Compound No. 16, N-(3-(1-(7H-pyrrolo[2,3-d]pyrimidine-4-yl)-1H-indole-6-yl)-4-methylphenyl)-4-((4-methylpiperazine-1-yl)methyl)-3-(trifluoromethyl)benzamide]
[1]
  GI50: 0.3 to 3 µM
[2]
  GI50: < 0.3 µM
[3]
  GI50: < 0.3 µM
[4]
  GI50: 0.3 to 3 µM

## Cc1ccc(NC(=O)c2cc(N3CCOCC3)cc(C(F)(F)F)c2)cc1-c1ccc2ccn(-c3ncnc4[nH]ccc34)c2c1 [Compound No. 13, N-(3-(1-(7H-pyrrolo[2,3-d]pyrimidine-4-yl)-1H-indole-6-yl)-4-methylphenyl)-3-morpholino-5-(trifluoromethyl)benzamide]
[1]
  GI50: > 3 µM
[2]
  GI50: 0.3 to 3 µM
[3]
  GI50: 0.3 to 3 µM
[4]
  GI50: > 3 µM

## Nc1cc(-n2ccc3ccc(-c4cccc(NC(=O)c5cc(N6CCOCC6)cc(C(F)(F)F)c5)c4)cc32)ncn1 [Compound No. 8, N-(3-(1-(6-aminopyrimidine-4-yl)-1H-indole-6-yl)phenyl)-3-morpholino-5-(trifluoromethyl)benzamide]
[1]
  GI50: > 3 µM
[2]
  GI50: > 3 µM
[3]
  GI50: > 3 µM
[4]
  GI50: > 3 µM

## Cc1ccc(NC(=O)c2cc(N3CCOCC3)cc(C(F)(F)F)c2)cc1-c1ccc2ccn(-c3cc(N)ncn3)c2c1 [Compound No. 3]
[1]
  GI50: > 3 µM
[2]
  GI50: < 0.3 µM
[3]
  GI50: > 3 µM
[4]
  GI50: > 3 µM

## Cc1ccc(NC(=O)c2cc(N3CCC(O)CC3)cc(C(F)(F)F)c2)cc1-c1ccc2ccn(-c3ncnc4[nH]ccc34)c2c1 [Compound No. 12, N-(3-(1-(7H-pyrrolo[2,3-d]pyrimidine-4-yl)-1H-indole-6-yl)-4-methylphenyl)-3-(4-hydroxypiperidine-1-yl)-5-(trifluoromethyl)benzamide]
[1]
  GI50: > 3 µM
[2]
  GI50: 0.3 to 3 µM
[3]
  GI50: > 3 µM
[4]
  GI50: > 3 µM

## Cc1cn(-c2cc(C(=O)Nc3cccc(-c4ccc5ccn(-c6cc(N)ncn6)c5c4)c3)cc(C(F)(F)F)c2)cn1 [Compound No. 7, N-(3-(1-(6-aminopyrimidine-4-yl)-1H-indole-6-yl)phenyl)-3-(4-methyl-1H-imidazole-1-yl)-5-(trifluoromethyl)benzamide]
[1]
  GI50: > 3 µM
[2]
  GI50: 0.3 to 3 µM
[3]
  GI50: > 3 µM
[4]
  GI50: > 3 µM

## Cc1ccc(NC(=O)c2cc(N3CCN(C)CC3)cc(C(F)(F)F)c2)cc1-c1ccc2ccn(-c3ncnc4[nH]ccc34)c2c1 [Compound No. 14, N-(3-(1-(7H-pyrrolo[2,3-d]pyrimidine-4-yl)-1H-indole-6-yl)-4-methylphenyl)-3-(4-methylpiperazine-1-yl)-5-(trifluoromethyl)benzamide]
[1]
  GI50: 0.3 to 3 µM
[2]
  GI50: < 0.3 µM
[3]
  GI50: 0.3 to 3 µM
[4]
  GI50: 0.3 to 3 µM
